Non-standard residues stand in square brackets, D forms with d. Residues, ends and D or L forms follow the SMILES beside them. dArg(NO2) = N=C(NCCC[C@@H](N)C(=O)O)N[N+](=O)[O-]
Experiments:
[1] = Neuroprotective activity in rat Cortical neuron assessed as protection from glutamate-induced neurotoxicity treated after glutamate-challenge by lactate dehydrogenase assay; type: functional; conditions: cortical neurone
Nitric oxide synthase 1 [2] = biological target: Nitric oxide synthase 1 (Homo sapiens, UniProt P29475); test: Inhibition of human nNOS
Homo sapiens [3] = species on record: Homo sapiens; test: Selectivity ratio of IC50 for human eNOS to IC50 for human nNOS
[4] = biological target: Nitric oxide synthase, inducible (Homo sapiens, UniProt P35228); test: Inhibition of human iNOS
Nitric oxide synthase 3 = biological target: T1, Nitric oxide synthase 3 (Homo sapiens, UniProt P29474); test: Inhibition of human eNOS
T1 sequence (P29474 whole entry): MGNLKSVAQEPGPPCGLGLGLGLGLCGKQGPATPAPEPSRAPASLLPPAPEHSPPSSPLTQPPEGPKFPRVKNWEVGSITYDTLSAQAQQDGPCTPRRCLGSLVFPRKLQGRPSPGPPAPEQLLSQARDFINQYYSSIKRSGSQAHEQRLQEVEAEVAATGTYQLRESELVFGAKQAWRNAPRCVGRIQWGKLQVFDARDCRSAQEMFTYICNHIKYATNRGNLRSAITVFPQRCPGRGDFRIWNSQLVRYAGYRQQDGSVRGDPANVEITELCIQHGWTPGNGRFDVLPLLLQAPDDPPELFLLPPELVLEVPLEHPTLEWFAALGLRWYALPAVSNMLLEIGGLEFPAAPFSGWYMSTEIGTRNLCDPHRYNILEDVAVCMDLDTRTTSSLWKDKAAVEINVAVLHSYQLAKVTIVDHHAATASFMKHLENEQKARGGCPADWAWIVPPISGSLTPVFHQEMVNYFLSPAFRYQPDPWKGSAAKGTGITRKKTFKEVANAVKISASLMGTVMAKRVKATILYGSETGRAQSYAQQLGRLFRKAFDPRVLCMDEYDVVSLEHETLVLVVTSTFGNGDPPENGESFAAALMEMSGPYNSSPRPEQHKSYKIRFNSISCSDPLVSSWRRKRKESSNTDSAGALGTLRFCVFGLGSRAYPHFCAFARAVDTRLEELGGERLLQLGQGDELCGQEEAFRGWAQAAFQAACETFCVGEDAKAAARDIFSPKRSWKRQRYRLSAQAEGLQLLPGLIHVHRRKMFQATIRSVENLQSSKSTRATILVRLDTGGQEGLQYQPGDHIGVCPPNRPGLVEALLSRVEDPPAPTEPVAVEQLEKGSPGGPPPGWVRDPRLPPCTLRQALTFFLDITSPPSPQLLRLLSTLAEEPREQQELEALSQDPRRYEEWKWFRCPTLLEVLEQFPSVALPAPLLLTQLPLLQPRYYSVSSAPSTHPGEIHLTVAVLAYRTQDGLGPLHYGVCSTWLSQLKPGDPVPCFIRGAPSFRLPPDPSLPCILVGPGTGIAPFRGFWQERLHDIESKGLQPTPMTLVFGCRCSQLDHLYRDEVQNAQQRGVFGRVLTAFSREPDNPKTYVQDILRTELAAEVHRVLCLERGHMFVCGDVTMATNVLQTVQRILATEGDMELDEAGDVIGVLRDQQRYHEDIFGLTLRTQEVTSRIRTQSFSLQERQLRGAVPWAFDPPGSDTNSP

L-type calcium channel = L-type calcium channel (Mus musculus, UniProt Q01815+Q02789+Q99246+Q9JIS7); test: Inhibition of Voltage-dependent L-type calcium channel in mouse medium spiny neurons by whole cell patch clamp assay
[5] = Inhibition of NMDA receptor in mouse medium spiny neurons by whole cell patch clamp assay
Homo sapiens [6] = species on record: Homo sapiens; test: Selectivity ratio of IC50 for recombinant GluN2A/GluN2D receptor (unknown origin) to IC50 for GluN2C/GluN2D (unknown origin) receptor
Canis familiaris = test: Antialzheimer activity in Beagle dog assessed as reduction in CSF amyloid beta level at 5 mg/kg, po after 9 hrs relative to control; type: functional, Canis lupus familiaris; set-up: scale not given: the % may be the effect or the level left
[7] = biological target: Microtubule-associated protein tau (Homo sapiens, UniProt P10636); test: Inhibition of recombinant tau (unknown origin) aggregation
[8] = Selectivity ratio of Ki for bovine eNOS to Ki for rat nNOS
[9] = Selectivity ratio of Ki for mouse iNOS to Ki for rat nNOS
Huntingtin = Huntingtin (Homo sapiens, UniProt P42858); test: Inhibition of HD exon 1 fusion protein with 51 glutamine residues (unknown origin) aggregation expressed in Escherichia coli SURE after 16 hrs by Western blotting analysis
Homo sapiens [10] = test: Neuroprotective activity in Parkinson disease patient assessed as reduction of L-DOPA-induced dyskinesia administered as infusion treated prior to L-DOPA-challenge relative to control; type: functional; set-up: scale not given: the % may be the effect or the level left
Nitric oxide synthase 1 [11] = biological target: Nitric oxide synthase 1 (Rattus norvegicus, UniProt P29476)
Homo sapiens [12] = species on record: Homo sapiens; test: Selectivity ratio of IC50 for NTD-deleted GluN1/NTD-deleted GluN2D receptor (unknown origin) to IC50 for NTD-deleted GluN1/NTD-deleted GluN2A receptor (unknown origin)
[13] = Inhibition of bovine nNOS; set-up: species or system Bos taurus
Mus musculus = species on record: Mus musculus; test: Neuroprotective activity in amyotrophic lateral sclerosis mouse model expressing human SOD1 G93A mutant assessed as increase in life span relative to control; type: functional

Nitric oxide synthase 1 (Homo sapiens, UniProt P29475), sequence (P29475 whole entry): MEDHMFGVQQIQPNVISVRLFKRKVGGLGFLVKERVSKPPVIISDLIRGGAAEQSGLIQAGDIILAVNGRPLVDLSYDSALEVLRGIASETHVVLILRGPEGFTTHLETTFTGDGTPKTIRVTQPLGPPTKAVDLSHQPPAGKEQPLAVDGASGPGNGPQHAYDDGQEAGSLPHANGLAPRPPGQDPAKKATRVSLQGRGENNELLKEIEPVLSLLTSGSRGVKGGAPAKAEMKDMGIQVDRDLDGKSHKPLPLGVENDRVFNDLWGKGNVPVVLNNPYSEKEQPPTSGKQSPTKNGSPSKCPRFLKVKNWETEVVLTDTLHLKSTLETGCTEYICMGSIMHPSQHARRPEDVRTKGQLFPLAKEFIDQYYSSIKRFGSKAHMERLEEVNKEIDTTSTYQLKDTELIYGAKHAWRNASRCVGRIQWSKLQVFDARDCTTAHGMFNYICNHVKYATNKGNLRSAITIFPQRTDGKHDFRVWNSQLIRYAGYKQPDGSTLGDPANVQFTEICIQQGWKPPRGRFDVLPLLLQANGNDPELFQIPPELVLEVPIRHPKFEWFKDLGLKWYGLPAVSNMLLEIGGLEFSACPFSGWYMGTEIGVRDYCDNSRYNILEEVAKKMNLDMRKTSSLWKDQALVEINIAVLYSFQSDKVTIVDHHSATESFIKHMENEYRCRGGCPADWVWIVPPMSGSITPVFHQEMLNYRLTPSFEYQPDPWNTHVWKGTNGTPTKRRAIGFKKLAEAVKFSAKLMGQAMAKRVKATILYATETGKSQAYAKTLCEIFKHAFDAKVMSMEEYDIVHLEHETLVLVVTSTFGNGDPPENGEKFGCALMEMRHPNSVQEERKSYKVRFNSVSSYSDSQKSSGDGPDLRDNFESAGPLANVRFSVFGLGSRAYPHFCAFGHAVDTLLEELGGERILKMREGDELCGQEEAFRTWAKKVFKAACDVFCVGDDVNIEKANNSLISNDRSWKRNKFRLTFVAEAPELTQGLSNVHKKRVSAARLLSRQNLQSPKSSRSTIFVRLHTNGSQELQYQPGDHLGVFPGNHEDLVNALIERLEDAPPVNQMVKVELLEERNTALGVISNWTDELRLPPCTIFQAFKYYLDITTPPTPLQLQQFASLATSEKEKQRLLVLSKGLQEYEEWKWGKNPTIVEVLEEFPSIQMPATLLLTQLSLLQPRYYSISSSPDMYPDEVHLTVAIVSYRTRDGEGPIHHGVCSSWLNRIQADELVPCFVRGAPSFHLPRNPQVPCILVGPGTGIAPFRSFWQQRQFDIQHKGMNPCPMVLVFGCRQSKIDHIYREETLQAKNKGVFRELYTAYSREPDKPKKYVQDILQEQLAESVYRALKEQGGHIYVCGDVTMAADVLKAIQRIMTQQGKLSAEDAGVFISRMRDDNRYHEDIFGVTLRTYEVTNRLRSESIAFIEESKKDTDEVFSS
Nitric oxide synthase, inducible, sequence (P35228 whole entry): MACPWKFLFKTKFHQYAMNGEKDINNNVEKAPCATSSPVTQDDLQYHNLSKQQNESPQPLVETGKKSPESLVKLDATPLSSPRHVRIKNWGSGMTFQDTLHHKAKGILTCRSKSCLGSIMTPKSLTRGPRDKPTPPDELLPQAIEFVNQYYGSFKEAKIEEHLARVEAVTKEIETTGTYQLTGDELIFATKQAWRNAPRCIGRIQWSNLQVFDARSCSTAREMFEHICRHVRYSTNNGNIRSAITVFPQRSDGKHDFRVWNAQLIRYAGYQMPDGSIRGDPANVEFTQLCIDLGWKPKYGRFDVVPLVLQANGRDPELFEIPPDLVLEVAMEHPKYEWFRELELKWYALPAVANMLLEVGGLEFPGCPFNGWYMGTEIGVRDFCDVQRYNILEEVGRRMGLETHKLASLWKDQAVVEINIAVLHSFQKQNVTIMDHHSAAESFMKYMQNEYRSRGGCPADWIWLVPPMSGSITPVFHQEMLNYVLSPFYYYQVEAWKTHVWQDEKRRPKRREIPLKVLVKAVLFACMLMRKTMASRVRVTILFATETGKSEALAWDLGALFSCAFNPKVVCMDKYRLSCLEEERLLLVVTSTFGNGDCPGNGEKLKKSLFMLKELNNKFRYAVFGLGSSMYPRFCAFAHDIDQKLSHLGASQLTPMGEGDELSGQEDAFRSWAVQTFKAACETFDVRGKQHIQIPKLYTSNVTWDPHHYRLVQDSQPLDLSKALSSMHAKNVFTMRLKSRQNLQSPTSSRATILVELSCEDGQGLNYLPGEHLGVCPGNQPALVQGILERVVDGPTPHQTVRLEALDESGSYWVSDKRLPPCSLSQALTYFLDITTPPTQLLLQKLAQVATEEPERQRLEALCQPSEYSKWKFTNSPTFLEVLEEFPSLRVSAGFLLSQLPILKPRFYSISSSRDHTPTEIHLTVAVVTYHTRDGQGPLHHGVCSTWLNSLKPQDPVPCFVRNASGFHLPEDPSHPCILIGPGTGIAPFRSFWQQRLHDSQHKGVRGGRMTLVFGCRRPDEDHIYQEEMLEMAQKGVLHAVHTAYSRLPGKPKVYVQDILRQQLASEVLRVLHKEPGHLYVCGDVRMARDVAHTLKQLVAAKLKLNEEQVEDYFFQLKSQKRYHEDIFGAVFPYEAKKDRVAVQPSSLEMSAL
Microtubule-associated protein tau, sequence (P10636 whole entry): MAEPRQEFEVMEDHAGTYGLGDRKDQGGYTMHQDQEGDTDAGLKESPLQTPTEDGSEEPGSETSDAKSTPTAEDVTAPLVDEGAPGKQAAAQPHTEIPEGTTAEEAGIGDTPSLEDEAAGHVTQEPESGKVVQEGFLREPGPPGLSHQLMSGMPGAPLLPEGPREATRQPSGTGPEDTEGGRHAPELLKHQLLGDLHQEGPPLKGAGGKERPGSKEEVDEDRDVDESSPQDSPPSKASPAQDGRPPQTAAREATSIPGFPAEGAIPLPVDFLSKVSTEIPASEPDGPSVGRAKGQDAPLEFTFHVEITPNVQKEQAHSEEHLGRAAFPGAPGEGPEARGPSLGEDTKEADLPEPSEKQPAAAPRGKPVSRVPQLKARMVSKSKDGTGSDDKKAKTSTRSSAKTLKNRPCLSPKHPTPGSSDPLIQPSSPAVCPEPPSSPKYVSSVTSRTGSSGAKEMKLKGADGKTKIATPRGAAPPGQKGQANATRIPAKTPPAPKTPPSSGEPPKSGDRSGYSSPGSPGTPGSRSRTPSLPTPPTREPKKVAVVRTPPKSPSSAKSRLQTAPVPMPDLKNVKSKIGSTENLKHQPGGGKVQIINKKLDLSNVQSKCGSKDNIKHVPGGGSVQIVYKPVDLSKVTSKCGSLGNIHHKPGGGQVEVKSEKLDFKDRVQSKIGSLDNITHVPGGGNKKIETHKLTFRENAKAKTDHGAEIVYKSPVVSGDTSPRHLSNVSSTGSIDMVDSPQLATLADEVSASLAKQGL
Nitric oxide synthase 1 (Rattus norvegicus, UniProt P29476), sequence (P29476 whole entry): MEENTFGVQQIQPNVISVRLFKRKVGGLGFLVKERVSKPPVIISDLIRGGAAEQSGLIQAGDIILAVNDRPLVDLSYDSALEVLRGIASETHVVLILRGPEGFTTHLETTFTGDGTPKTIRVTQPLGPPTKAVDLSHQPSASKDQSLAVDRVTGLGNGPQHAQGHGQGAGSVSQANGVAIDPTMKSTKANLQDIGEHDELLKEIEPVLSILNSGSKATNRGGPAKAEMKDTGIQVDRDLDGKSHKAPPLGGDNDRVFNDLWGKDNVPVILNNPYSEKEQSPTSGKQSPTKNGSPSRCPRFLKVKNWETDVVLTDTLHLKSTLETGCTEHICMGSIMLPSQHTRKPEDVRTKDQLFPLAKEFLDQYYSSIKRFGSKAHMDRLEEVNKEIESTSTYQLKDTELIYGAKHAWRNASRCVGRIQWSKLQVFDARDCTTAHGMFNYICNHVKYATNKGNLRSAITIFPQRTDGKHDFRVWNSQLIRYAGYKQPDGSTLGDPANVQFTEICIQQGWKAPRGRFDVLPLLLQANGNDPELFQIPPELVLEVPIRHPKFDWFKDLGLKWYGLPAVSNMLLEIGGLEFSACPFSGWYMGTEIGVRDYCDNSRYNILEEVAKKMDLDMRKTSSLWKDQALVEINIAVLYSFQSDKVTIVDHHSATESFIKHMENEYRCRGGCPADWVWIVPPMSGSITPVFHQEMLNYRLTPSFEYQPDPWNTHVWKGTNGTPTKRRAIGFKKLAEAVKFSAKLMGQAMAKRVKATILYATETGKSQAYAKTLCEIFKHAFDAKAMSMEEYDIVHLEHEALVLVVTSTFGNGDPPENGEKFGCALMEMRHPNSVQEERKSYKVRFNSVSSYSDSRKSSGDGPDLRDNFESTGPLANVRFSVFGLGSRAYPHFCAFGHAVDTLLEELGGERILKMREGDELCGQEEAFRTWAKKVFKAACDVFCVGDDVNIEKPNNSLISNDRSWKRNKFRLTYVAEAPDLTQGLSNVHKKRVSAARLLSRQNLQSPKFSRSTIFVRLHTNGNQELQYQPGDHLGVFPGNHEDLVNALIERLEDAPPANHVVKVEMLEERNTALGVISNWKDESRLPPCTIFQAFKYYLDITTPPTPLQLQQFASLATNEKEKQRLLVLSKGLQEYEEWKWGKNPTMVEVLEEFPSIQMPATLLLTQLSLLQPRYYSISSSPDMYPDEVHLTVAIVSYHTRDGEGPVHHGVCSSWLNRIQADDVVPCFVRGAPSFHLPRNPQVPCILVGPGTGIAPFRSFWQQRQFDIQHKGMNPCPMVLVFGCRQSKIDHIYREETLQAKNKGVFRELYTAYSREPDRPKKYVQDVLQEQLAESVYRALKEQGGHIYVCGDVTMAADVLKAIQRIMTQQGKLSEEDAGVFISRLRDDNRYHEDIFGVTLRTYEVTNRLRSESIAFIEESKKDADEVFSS

C[C@@H](CN1CCC(Cc2ccccc2)CC1)[C@@H](O)c1ccc(O)cc1 gave an IC50 [1] of 400 nM.
With CN(C)CCOc1ccc(-c2cccc(N)n2)c2c1CCCC2 the IC50 (Nitric oxide synthase 1 [2]) was 70 nM and the Ratio IC50 (Homo sapiens [3]) was 50.
For NC(=Nc1ccc(CCNCCc2cccc(Cl)c2)cc1)c1cccs1, the IC50 [4] was 5000 nM, the IC50 (Nitric oxide synthase 3) was 3500 nM and the IC50 (Nitric oxide synthase 1 [2]) was 35 nM.
In the case of Cc1ccc2c(c1)c1c(n2CCc2ccc(C)nc2)CCN(C)C1 [LATREPIRDINE], the IC50 (L-type calcium channel) is reported as 50000 nM and the IC50 [5] is reported as 10000 nM.
CC(=O)CN1CCN(CCc2ccc(-c3cccc(N)n3)cc2)CC1 showed an IC50 (Nitric oxide synthase 1 [2]) of 140 nM and a Ratio IC50 (Homo sapiens [3]) of 6.
With Cc1ccc2[nH]c(=O)c(C3=NN(C(=O)CCC(=O)O)C(c4ccc(Br)cc4)C3)c(-c3ccccc3)c2c1 (stereo not given) the Ratio IC50 (Homo sapiens [6]) was > 50.
For N=C(Nc1ccc(CCNCCc2cccc(Cl)c2)cc1)c1cccs1, the Ratio IC50 (Homo sapiens [3]) was 100.
C[C@@]1(c2cc(-c3cncnc3)c(F)cc2F)CCSC(N)=N1 [LY-2811376] gave an Activity (Canis familiaris) of 70%.
Molecule Cc1cc2nc3ccc(N(C)C)cc3[s+]c2cc1N [TOLONIUM CHLORIDE] has a Ki [7] of 69 nM.
For N=C(NCCC[C@H](N)C(=O)O)N[N+](=O)[O-] [NITROARGININE], the Ratio Ki [8] was 11 and the Ratio Ki [9] was 293.
Molecule COC(=O)c1ccc(C(=O)Nc2nc3ccc(C(=O)Nc4ccccc4)cc3s2)cc1 has an IC50 (Huntingtin) of 1200 nM.
C[C@@H]([C@@H](O)c1ccc(O)cc1)N1CCC(O)(c2ccccc2)CC1 [TRAXOPRODIL] showed an Activity (Homo sapiens [10]) of 30%.
Work on COC(=O)[C@@H](CCCNC(=N)N[N+](=O)[O-])NC(=O)[C@H](N)Cc1ccccc1 (H-[dF]-[dArg(NO2)]-OMe) yielded a Ratio Ki [8] of 2.6, a Ki (Nitric oxide synthase 1 [11]) of 1900 nM and a Ratio Ki [9] of 1800.
CC(C(O)c1ccc(O)cc1)N1CCC(Cc2ccccc2)CC1 (stereo not given) [IFENPRODIL] showed an IC50 [1] of 3500 nM.
O=C(O)c1cc2cc(Br)ccc2oc1=O gave a Ratio IC50 (Homo sapiens [12]) of 23.
For C=CNC(=N)NCCC[C@H](N)C(=O)O, the Ki [13] was 200 nM, the Ratio Ki [8] was 35 and the Ratio Ki [9] was 11.
In the case of N/N=C(\N)NCCC[C@H](N)C(=O)O, the Ki [13] is reported as 300 nM, the Ratio Ki [8] is reported as 8.3 and the Ratio Ki [9] is reported as 10.
For [O-][n+]1cccc(/C(Cl)=N/OC[C@H](O)CN2CCCCC2)c1 [ARIMOCLOMOL], the Activity (Mus musculus) was 22%.
